The record followed here is patent US20070110813A1, “Polycation-polyanion complexes, compositions and methods of use thereof” (priority 2005, published 2007).

Data set [1] has as its system sheep lungs. Type of data set: in vivo. Here is the method: Polylysine was delivered to 12 pulmonary subsegments via a bronchoscope in a fibrin gel matrix at 100 mg, 30 mg and 10 mg per subsegment (groups 1, 2 and 3 in FIG. 1). The molecular weight of the polylysine used was 20,000-80,000 Da with an average molecular weight of 55,000 Da. A total of 10 sheep were thus treated.
The characteristic lesion caused by polylysine is renal infarction, consistent with what has been reported in the literature for polycationic injury. In the animals tested with baseline normal renal function, renal damage resulting from cationic injury remains subclinical. […] Thus, these clinical pathology tests were not sufficiently sensitive to detect polycationic renal injury resulting from polylysine. Polycationic renal toxicity following pulmonary treatment is initiated and can be detected only at necropsy within days of treatment. […] The characteristic acute lesion appeared to be renal infarction with associated hemorrhage. Lesions occurred within days (3-7 days) of cationic exposure. Necropsy findings are the most sensitive markers of toxicity.
4 sheep were treated at 12 pulmonary subsegments each with a fibrin gel containing 100 mg chondroitin sulfate (Group 5 in FIG. 1). 2 animals were sacrificed at 8 days and the remaining 2 animals were sacrificed at 4 weeks. […] However, pulmonary responses in these animals were minimal, indicating poor efficacy.
In a series of 4 sheep experiments (Group 6 in FIG. 1), in-situ precipitation of chondroitin sulfate and polylysine solutions was achieved as they exit a dual lumen catheter. Chondroitin sulfate was added to a fibrinogen solution to a final concentration of 20 mg/mL, while polylysine was added to a thrombin solution to a final concentration of 20 mg/mL. Both solutions were 5 mL and were injected through a dual lumen catheter into subsegments of sheep lungs for a total of 10 mL per subsegment.
In a total of 4 sheep (Group 7 in FIG. 1), use of systemic heparin to complex polylysine in the circulation and reduce or prevent renal toxicity was attempted.
Using this precipitation methodology, polylysine related renal toxicity was prevented over a broad polylysine concentration range from 1 mg/mL to 10 mg/mL at chondroitin sulfate concentration of 1 to 5 mg/mL (Groups 9 to 13 in FIG. 1).
Lung volume reduction treatment was performed in 8 consecutive animals at 84 subseguential sites using a formulation containing 13 mg/mL of human fibrinogen, 5 mg/mL of sodium chondroitin sulfate, 5 mg/mL of poly-L-lysine, and polymerized in situ with 1000 U activated human thrombin (Group 13 in FIG. 1).

Data set [2] has as its system rats. The data set is described as follows: Lung volume reduction in rats, fibrin gel, lungs and kidneys evaluated after 1 week. In kind it is in vivo. The conditions noted are these: 200 U/mL thrombin. The method, then:
(§1) Three rats were treated with 5 mg/mL poly(Lys, Glu) to evaluate whether the copolymer could be used to modulate local and/or systemic toxicity. Treatments contained 28.6 mg/mL fibrinogen polymerized with 200 U/mL thrombin. All rats were anesthetized and intubated orotracheally. A dual lumen catheter was placed into a target site in the lung with bronchoscopic guidance. The reagents were injected into the lung and the catheter was removed. Each animal was allowed to recover from anesthesia, and returned to its cage. After 1 week, all animals were euthanized. The extent of pleural scarring was assessed prior to lung removal from the chest cavity. The lungs were then removed en bloc, fully inflated, and evaluated visually to assess the extent of local parenchymal inflammation and scarring produced by treatment. The kidneys were also harvested and evaluated for the presence of cortical lesions and infarctions which can develop as a consequence of systemic toxicity following polycation adminstration.
as §1, with “4” for “Three”, “2.5” for “5”, “polyomithine and 3 were treated with 2.5 mg/mL polyomithine precipitated with 2.5 mg/mL chondroitin sulfate” for “poly(Lys, Glu)”, “precipitation” for “the copolymer”, “administration.” for “adminstration.”

Setting [3] is: 5 mg/mL poly(Lys, Glu) in 28.6 mg/mL fibrinogen.
[4] abbreviates: 100 mg/treatment in fibrin gel, 12 pulmonary subsegments (group 1).
[5] abbreviates: 10 and 30 mg/treatment in fibrin gel (groups 2 and 3).
Where [6] appears, read: 2.5 mg/mL polyornithine in 28.6 mg/mL fibrinogen.

“Also recorded” adds a separate entry of the source. Like-named read-outs stand apart in the source and are kept apart here.

Consider chondroitin sulfate, for which, in data set [1] (fibrin gel containing 100 mg chondroitin sulfate, 12 subsegments (Group 5)), the pulmonary responses result is “minimal”.

Turning to heparin, in data set [1] (systemic heparin to complex polylysine in the circulation, 4 sheep (Group 7)), the “prevention of polylysine renal lesions” value was “did not prevent renal lesions”.

As for poly(Lys, Glu) [copolymer], in data set [2] (setting [3]), the “local pulmonary lesions / efficacy as lung volume reduction agent” value is on record as “no significant local pulmonary lesions; also recorded: failed to demonstrate efficacy” and the “systemic toxicity, manifest as renal lesions” value is “no incidence of systemic toxicity; also recorded: did not show any systemic toxicity”.

Turning to poly-L-lysine [polylysine], in data set [1] (setting [4]), the lung injury result is “severe lung injury”; the renal toxicity result is “renal toxicity manifest as nephropathy and infarction”. In addition, in data set [1] (setting [5]), the pulmonary responses result was “acceptable pulmonary responses” and the renal toxicity result is on record as “associated with renal toxicity”. In addition, in data set [1] (animals with renal lesions at necropsy), the “serum BUN or creatinine, urine analysis, urine protein-to-creatinine ratio” value was “No abnormalities”. In addition, the “time of occurrence of renal lesions after cationic exposure” value in data set [1] (renal infarction with associated hemorrhage) lay in the range of 3 to 7 days.

Turning to polyornithine, in data set [2] (setting [6]), the local toxicity entry was “significant local toxicity” and the systemic toxicity result is “systemic toxicity, manifest as renal lesions”.
